Earlier results, collected in patent US12390476B2, “Multiphasic contraceptive regimen for oral combination drug formulation of progestin and estrogen” (priority 2011, dated 2025).

Settings: compared to gestodene, desogestrel and drospirenone

Compound: C#C[C@]1(O)CC[C@H]2[C@@H]3CCC4=CC(=O)CC[C@@H]4[C@H]3CC[C@@]21CC [LNG, levonorgestrel]
- incidence of venous thromboembolism (VTE): lowest incidence
